Data as given in US5968526A, “T cell epitopes of the major allergens from Dermatophagoides (house dust mite)” (Immulogic Pharamaceutical Corporation, priority 1995, dated 1999).

Columns and labels:
Format in all cases: cell-based, human
[1] = system: T cell lines primed in vitro to Der p II; assay: secondary proliferation of Der p II-primed T cell lines (Examples VIII, X, XI); conditions: for T cell reactivity: overlapping Der p II peptides, FIG. 9; for T cell response: patient 348, native Der p II primed, data not shown
Summary of the method: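 PBMC from house dust mite-allergic patients primed in vitro with native or recombinant Der p II at 20 μg/ml (or recombinant at 3 μg/ml), with x-irradiated (3500 Rads) autologous PBMC as antigen-presenting cells. Lines then challenged with Der p II-derived peptides; proliferation expressed as S.I., ranked sum scoring top three responses 3, 2, 1.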

[2] = system: T cell lines primed in vitro to Der f II; assay: secondary proliferation of Der f II-primed T cell lines (Examples IX, X, XI); conditions: for T cell response to Der p II peptides: Der f II primed, FIG. 11
Protocol: Experiments similar to those of Example V were performed to determine the T cell-reactive areas of the Der f II protein. For example, PBMC from house dust mite-allergic patient 384 were stimulated in vitro with purified recombinant Der f II and the T cell line was then challenged in the presence of x-irradiated (25,000 Rads) autologous Epstein-Barr virus transformed B cells as antigen presenting cells with various overlapping […]. The results of this proliferation assay indicate that T cells from this particular patient respond well to peptides DF II-1, DF II-2, DF II-3.1, DF II-4.5, DF II-15, DF II-16, and DF I-19.1 (data not shown).
The above procedure was followed with 10 patients, except in individual cases, T cell lines were primed by stimulating the patient PBMC with 20 μg/ml or 3 μg/ml purified native Der f II, and were assayed in the presence of x-irradiated (3500 Rads) autologous PBMC as antigen-presentingcells.
A study similar to that described in Example VII was carried out to determine the T cell cross-reactivity of the Der p II and Der f II proteins. T cells primed with the Der f II protein were challenged with various Der f II peptides and a set of substantially matching Der p II peptides. […]

[3] = system: T cell lines primed in vitro to Der p I; assay: secondary proliferation of Der p I-primed T cell lines (Examples V, VII, XI); conditions: for T cell reactivity: overlapping Der p I peptides
Summary of the method: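 PBMC were primed with native or recombinant Der p I (10 or 20 μg/ml) for 7 days, then expanded with IL-2 and IL-4. Resting T cells (2×10^4) were cultured 3 days with irradiated autologous EBV-B cells or PBMC and titrated protein or peptides, then pulsed 16 h with 1 μCi ³H-thymidine. S.I. was peak-response CPM over medium-only CPM, with S.I. ≥2.0 scored positive.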

[4] = system: T cell cultures reactive with Der p I from house dust mite-allergic subjects; assay: secondary T cell proliferation assay, Group I (Der p I) overlapping and candidate/unique peptides; percent of T cell reactivity; conditions: patient 1733; highest S.I. ≥2.0 recorded
Excerpt: To determine whether a peptide (candidate peptide) or a combination of candidate peptides are likely to comprise a sufficient percentage of the T cell reactivity of house dust mite protein allergens, to induce T cell nonresponsiveness in a substantial percentage of a population of individuals sensitive to house dust mite allergen, an algorithm can be used. In accordance with one such algorithm, a set of overlapping peptides is produced by systematically dividing the protein allergen(s) of interest into al least two overlapping peptide regions of desired lengths (e.g., of about 12-30 amino acid residues in length, preferably not longer than about 25 amino acid residues in length with about 5-15 amino acid residues of overlap). This division into peptide regions can be arbitrary, can be made according to an algorithm, or can be wholly or partially based on regions of house dust mite Group I and/or Group II protein allergens known to comprise at least one T cell epitope. Preferably, at least 50% of the entire house dust mite protein allergen sequence and more preferably, the entire house dust mite protein allergen sequence is divided into two or more peptides. A human T cell stimulation index is determined for each of the peptides in an in vitro T cell proliferation assay as described herein for each individual tested in a population of individuals sensitive to the protein antigen. For example both WO93/08279 and WO94/24281 disclose T cell studies with overlapping peptides derived from Der p I, Der p II, Der f I and Der f II. A candidate peptide or combination of candidate peptides is selected based, at least in part, on the mean human T cell stimulation index of the candidate peptide in the set of peptides tested and the positivity index of the candidate peptide in the set of peptides tested (see, FIGS. 3 and 4). The human T cell stimulation index for the candidate peptide(s) is summed. For each individual, the human T cell stimulation index for the candidate peptide(s) is divided by the sum of the human T cells stimulation indices of the remaining peptides in the set of peptides tested to determine a percent of T cell reactivity as shown below:
Alternatively, the presence of T cell epitopes in the candidate peptide dependent on amino acids residues in an overlapping peptide located at either the N-terminus or C-terminus of the candidate peptide in the amino acid sequence of the protein antigen, but which epitopes are not present in the candidate peptide can be considered in calculating the percent of T cell reactivity in the candidate peptide by use of the following formula: [formula]
In this formula, "NT flanking peptide" refers to a peptide which comprises amino acid residues which overlap with amino acid residues located at the N-terminus of the candidate peptide in the amino acid sequence of the protein antigen from which the peptide is derived; "CT flanking peptide" refers to a peptide which comprises amino acid residues which overlap with amino acid residues located a the C-terminus of the candidate peptide in the amino acid sequence of the protein antigen from which the peptide is derived. In this calculation stimulation indices for the candidate peptide, the N-terminal flanking peptide and the C-terminal flanking peptide are added and divided by the sum total of the stimulation indices for the entire set of overlapping peptides obtain a percent of T cell reactivity for the candidate peptide. If a combination of two or more candidate peptides is selected each of which contains amino acid residues which overlap, this calculation cannot be used to determine a percent of T cell reactivity for each candidate peptide separately. However, a total percent of T cell reactivity for the combination of candidate peptides can be obtained. In this situation, the stimulation indices for all of the candidate peptides which overlap is included in the calculation. […]

[5] = system: PBMC from mite-allergic patient; assay: primary T cell (PBMC) proliferation, mite-allergic patient, tritiated thymidine; conditions: medium 1071 ± 30
Protocol: Peripheral blood mononuclear cells (PBMC) were purified by Ficoll-Hypaque centrifugation of a peripheral blood specimen from mite-allergic patient and were assayed for proliferation in response to various antigens, i.e., affinity-purified Der p I, affinity purified Der p II, various Der p I and Der p II peptides. For assay, 5×10^4 PBMC were cultured in triplicate microwells for 7 days at 37° C. in the presence of various concentrations of antigen in 200 μl RPMI-1640 containing 5% human AB serum. Each well then received 1 μCi tritiated thymidine for 16 hours. The counts incorporated were collected onto glass fiber filters and processed for liquid scintillation counting. […] The CPM +/- standard deviation are shown. The stimulation index of each response (S.I.) is the ratio of the ^3 H-thymidine CPM incorporated by the cells in response to antigen divided by the ^3 H-thymidine CPM incorporated by cells in medium only. […] Thus, these peptides contain Der p I or Der p II T cell epitopes recognized by T cells from this particular allergic patient.

[6] = system: T cell lines primed in vitro with Der p II; assay: T cell proliferation with fine map and modified Group II peptides (Example XIV); conditions: FIGS. 32a-b
Protocol: Long term T cell lines were established by stimulation of 2×10^6 PBL/ml in bulk cultures of complete medium (RPMI-1640, 2 mM L-glutamine, 100 U/ml penicillin/streptomycin, 5×10^-5 M 2-mercaptoethanol, and 10 mM HEPES supplemented with 5% heat inactivated human AB serum) with 30 μg/ml of purified native Der p I or Der p II for 5-6 days at 37° C. in a humidified 5% CO2 incubator to select for house dust mite protein allergen reactive T cells. This amount of priming antigen was determined to be optimal for the activation of T cells from house dust mite allergic patients. Viable cells were purified by LSM centrifugation and cultured in complete medium supplemented with 5 units recombinant human IL-2/ml and 5 units recombinant human IL-4/ml for up to three weeks until the cells no longer responded to lymphokines and were considered "rested". The ability of the T cells to proliferate to selected peptides, purified Der p I or Der p II, or positive (PHA) controls or negative controls (medium only) was then assessed. For assay, 2×10^4 rested cells were restimulated in the presence of 2×10^4 autologous Epstein-Barr virus (EBV)-transformed B cells (prepared as described below) (gamma-irradiated with 25,000 RADS) or with 5×10^4 autologous PBMs (gamma-irradiated with 3500 RADS), with 2-50 μg/ml of purified native Der p I or Der p II in a volume of 200 μl complete medium in duplicate or triplicate wells in 96-well round bottom plates for 3 days. Each well then received 1 μCi tritiated thymidine for 16-20 hours. The counts incorporated were collected onto glass fiber filter mats and processed for liquid scintillation counting. […] The titrations were used to optimize the dose of peptides in T cell assays.
The maximum response in a titration of each peptide is expressed as the stimulation index (S.I.). The S.I. is the counts per minute (CPM) incorporated by cells in response to peptide, divided by the CPM incorporated by cells in medium only. […] The positive results were used in calculating mean stimulation indices for each peptide for the individual patient tested.
The above procedure was followed with 18 patients in the studies using peptides derived from Der p I and Der f I (FIGS. 31a-b), and 21 patients in the studies with Der p II peptides (FIGS. 32a-b). Individual patient results were used in calculating the mean S.I. for each peptide if the patient responded to the Der p I or Der p II protein at an S.I. of 2.0 or greater and the patient responded to at least one peptide derived from a house dust mite allergen at an S.I. f 2.0 or greater. A summary of positive experiments from the patients tested is shown in FIGS. 32a and 32b and FIGS. 33a and 33b. The bars represent the positivity index. […] In parenthesis above each bar are the mean stimulation indices for each peptide or protein for the group of patients tested.
Autologous EBV-transformed cell lines were γ-irradiated with 25,000 Rad and used as antigen presenting cells in secondary proliferation assays and secondary bulk stimulations. These EBV-transformed cell lines were made by incubating 5×10^6 PBL with 1 ml of B-59/8 Marmoset cell line (ATCC CRL1612, American Type Culture Collection, Rockville, Md.) conditioned medium in the presence of 1 μg/ml phorbol 12-myristate 13-acetate (PMA) at 37° C. for 60 minutes in 12×75 mm polypropylene round-bottom Falcon snap cap tubes (Becton Dickinson Labware, Lincoln Park, N.J.). These cells were then diluted to 1.25×10^6 cells/ml in RPMI-1640 as described above except supplemented with 10% heat-inactivated fetal bovine serum and cultured in 200 μl aliquots in flat bottom culture plates until visible colonies were detected. They were then transferred to larger wells until the cell lines were established.

DF II-19.1: Der f II peptide (VVTVKLVGDNGVLACAIATHAKIRD)
T cell response to Der f II peptides ([1]; Der p II primed, 26 positive experiments, FIG. 12): respond significantly | T cell reactivity ([2]; overlapping Der f II peptides, 10 positive experiments, FIG. 10): significant areas of T cell reactivity

DP I-6.1: Der p I peptide (YPPNANKIREALAQTHSAIAVIIG)
T cell reactivity ([3]; 33 positive experiments): significant regions of T cell reactivity | T cell stimulation index (S.I.) [4]: 2.1

DP I-7.1: Der p I peptide (AQTHSAIAVIIGIKDLDAFRHYDGRT)
T cell reactivity ([3]; 33 positive experiments): significant regions of T cell reactivity | T cell stimulation index (S.I.) [4]: 2.2

DP I-9: Der p I peptide (IIQRDNGYQPNYHAVNIVGYSNA)
T cell reactivity ([3]; 33 positive experiments): significant regions of T cell reactivity | T cell stimulation index (S.I.) [4]: 2.4

DP I-12.1: Der p I peptide, native sequence (ELVDCASQHGCHGDTIPRGIE)
difference in mean S.I. or percentage of positive responses, original vs additional (native sequence) peptides ([3]; DP I-11/12 vs DP I-11.1/12.1): no significant difference | T cell stimulation index (S.I.) [4]: 2.2

DP I-16: Der p I peptide (HAVNIVGYSNAQGVDYWIVRNS)
T cell reactivity ([3]; 33 positive experiments): significant regions of T cell reactivity | T cell stimulation index (S.I.) [4]: 2.0

DP I-17: Der p I peptide (GDNGYGYFAANIDLMMIEEYPYVVIL)
T cell stimulation index (S.I.) [4]: 0

DP I-22.2: Der p I peptide (VAATESAYLAHRNQSLDLAEQELVD)
T cell response to selected Der p I peptides ([3]; 33 positive experiments, FIG. 13): respond significantly | T cell stimulation index (S.I.) [4]: 3.1

DP II-1: Der p II peptide (DQVDVKDCANHEIKKVLVPG)
T cell reactivity ([1]; 26 positive experiments): significant T cell reactivity | T cell response [1]: responds well | T cell response to Der p II peptides ([2]; 10 positive experiments): respond significantly

DP II-4: Der p II peptide (QLEAVFEANQNTKTAKIEIKASIDG)
T-cell reactivity (DPII-22 series development) ([1]; Der p II T-cell map and analogs): high T-cell reactivity | T cell reactivity ([1]; 26 positive experiments): significant T cell reactivity | T cell response to Der p II peptides ([2]; 10 positive experiments): respond significantly | CPM ± S.D. ([5]; 10 μg/ml): 2126 ± 25 CPM | CPM ± S.D. ([5]; 30 μg/ml): 1979 ± 94 CPM | CPM ± S.D. ([5]; 100 μg/ml): 2314 ± 116 CPM

DP II-7: Der p II peptide (CPLVKGQQYDIKYTWNVPKIAPKSENV)
T cell reactivity ([1]; 26 positive experiments): significant T cell reactivity | T cell response [1]: responds well | T cell response to Der p II peptides ([2]; 10 positive experiments): respond significantly

DP II-25: Der p II peptide (TVKVMGDDGVLACAIATHAKIRD)
stimulation index / response to selected Der p II peptides ([2]; 10 patients, FIG. 18a): highest stimulation index | T cell response, Group II peptides [6]: positive T cell studies
